Results from paper PMC7459655 (Biomedicines, 2020).
Where “and” joins values, the source holds several entries; their conditions need not be identical. Equal entries are not always repeated.

Assays:
[1] = tested on: P. falciparum CQ-sensitive strain 3D7
[2] = tested on: P. falciparum CQ-sensitive strain 3D7; assay: microbe, parasite or virus in culture; details: Plasmodium falciparum, 3D7, 72 h
[3] = in vitro; details: human
[4] = tested on: P. falciparum CQ-resistant strain Dd2; assay: microbe, parasite or virus in culture; details: Plasmodium falciparum, DD2, 72 h
[5] = tested on: non-infected erythrocytes
[6] = tested on: P. falciparum CQ-resistant strain Dd2
[7] = tested on: P. falciparum gametocyte-producing strain NF54 gametocytes; type: cell-based, Plasmodium falciparum
[8] = tested on: P. falciparum mature gametocytes (male gametogenesis); type: cell-based, Plasmodium falciparum
[9] = tested on: leukemia cell line Nalm-6

SMILES | antiplasmodial activity against 3D7 (in words) [1] | IC50 [2] [µM] | IC90 [2] [µM] | CC50 [3] [µM] | IC50 [4] [µM] | SI (ratio of CC50 and IC50) [1] | hemolytic effect on erythrocytes (in words) [5] | SI (ratio of CC50 and IC50) [6] | antiplasmodial activity against Dd2 compared to 3D7 (in words) [6] | IC90 [4] [µM] | reduction of gametocyte development (stage IV and V gametocytes) [7] | reduction in exflagellation (numbers of exflagellation centers) [8] | cytotoxic effect, LDH release (in words) [9]
CC(C)[C@H]1COC(c2ccccc2[As](c2ccccc2)c2ccccc2)=N1 [As-10] | higher micromolar ranges | 18.1 ± 3 | 163 |  |  |  |  |  |  |  |  |  | 
CCCCCCCCCCCC[As](=O)(CCCCCCCCCCCC)CCCCCCCCCCCC [As-11] | higher micromolar ranges | 43 ± 5.7 |  |  |  |  |  |  |  |  |  |  | 
c1ccc(-c2ccccc2[As]23(OCCO2)OCCO3)cc1 [As-4] | lower micromolar ranges | 8.64 ± 0.963 | 77.8 | > 100 | 30.1 ± 2.07 | >12 | no hemolytic effect | >3 | reduced antiplasmodial activities |  |  |  | 
O[As]12(OC(C(F)(F)F)(C(F)(F)F)c3ccccc31)OC(C(F)(F)F)(C(F)(F)F)c1ccccc12 [As-5] | higher micromolar ranges | 16.6 ± 3.09 | 149 |  |  |  |  |  |  |  |  |  | 
Cc1ccc2ccccc2c1[As](=O)(O)c1c(C)ccc2ccccc12 [As-8] | lower micromolar ranges | 1.52 ± 0.089 | 13.7 | > 100 | 0.35 ± 0.099 | >66 | no hemolytic effect | >286 | increased activities | 3.15 | about 60% | 67% and 87% | No noticeable cytotoxic effect
